Assay results as given in article PMC6465285, “Arsinothricin, an arsenic-containing non-proteinogenic amino acid analog of glutamate, is a broad-spectrum antibiotic” (Communications Biology, 2019).

Key:
[1] = molecular target: PpArsN1, arsinothricin N-acetyltransferase ArsN1 of Pseudomonas putida KT2440 (Pseudomonas putida KT2440); assay: SEC; size-exclusion chromatography of purified PpArsN1 in solution (Supplementary Figure 2); conditions not given
[2] = molecular target: T1, glutamine synthetase (Escherichia coli, UniProt P0A9C5); assay: coupled ADP/NADH oxidation assay with purified enzyme; format: biochemical
T1 construct: gene glnA

[3] = molecular target: T1, glutamine synthetase; assay: coupled ADP/NADH oxidation assay, Km; format: biochemical
[4] = molecular target: T2, SvPAT (phosphinothricin N-acetyltransferase) (Streptomyces viridochromogenes, UniProt Q57146); assay: DTNB acetyltransferase assay, Km; settings: read-out: Specific activity (nmol s^-1 mg^-1 PpArsN1) / Km
T2 construct: gene pat

[5] = molecular target: T3, PpArsN1 (ArsN1 N-acetyltransferase) (Pseudomonas putida, UniProt Q88LK7)
T3 construct: gene PP_1924

[6] = molecular target: T3, PpArsN1 (ArsN1 N-acetyltransferase); remark: listed apart in the source
[7] = test system: CP(=O)(O)CC[C@H](N)C(=O)O; assay: purified protein; settings: acetyl coenzyme A

T1 sequence (P0A9C5 2-469): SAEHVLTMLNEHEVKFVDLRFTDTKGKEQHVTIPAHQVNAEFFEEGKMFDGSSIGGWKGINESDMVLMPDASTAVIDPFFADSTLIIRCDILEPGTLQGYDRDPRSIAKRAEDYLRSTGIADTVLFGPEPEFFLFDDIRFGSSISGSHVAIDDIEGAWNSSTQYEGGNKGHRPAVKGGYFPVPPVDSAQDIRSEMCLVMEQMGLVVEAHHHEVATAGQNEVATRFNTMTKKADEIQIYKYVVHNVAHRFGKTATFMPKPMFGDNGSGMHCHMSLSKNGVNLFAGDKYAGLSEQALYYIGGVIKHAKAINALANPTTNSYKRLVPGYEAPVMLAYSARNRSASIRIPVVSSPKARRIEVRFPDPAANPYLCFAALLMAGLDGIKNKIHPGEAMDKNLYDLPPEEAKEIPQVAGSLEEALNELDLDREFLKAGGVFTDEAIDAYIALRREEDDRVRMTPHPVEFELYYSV
T2 sequence (Q57146 whole entry, looked up): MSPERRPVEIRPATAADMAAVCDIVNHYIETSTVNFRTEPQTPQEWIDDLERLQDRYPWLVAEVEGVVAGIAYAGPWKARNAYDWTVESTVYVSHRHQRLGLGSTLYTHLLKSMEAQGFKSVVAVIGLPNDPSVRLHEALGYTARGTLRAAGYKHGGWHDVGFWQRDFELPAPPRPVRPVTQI

Compound: PpArsN1, arsinothricin N-acetyltransferase ArsN1 of Pseudomonas putida KT2440 (enzyme)
- stoichiometry N [1]: 2

Compound: CP(=O)(O)CC[C@H](N)C(=O)O [L-PPT, 2-amino-4-(hydroxymethylphosphinyl)butanoate]
- Ki [2]: 400 ± 150 nM

Compound: N[C@@H](CCC(=O)O)C(=O)O [L-glutamate]
- Km [3]: 2700 ± 600 µM

Compound: C[As](=O)(O)CC[C@H](N)C(=O)O [AST, 2-amino-4-(hydroxymethylarsinoyl)butanoate]
- Km [4]: 12 ± 2 µM
- Km [5]: 11 ± 3 µM

Compound: CS(=N)(=O)CC[C@H](N)C(=O)O (stereo partly drawn) [L-MSO, L-methionine sulfoximine]
- Specific activity (nmol s^-1 mg^-1 PpArsN1) / Substrate [6]: 2.1 ± 0.1 nmol/s/mg

Compound: SvPAT (phosphinothricin N-acetyltransferase) (Streptomyces viridochromogenes DSM 40736)
- Km [7]: 47 ± 2 µM
- kcat [7]: 3.1 s⁻¹
- kcat/Km [7]: 66000 M⁻¹ s⁻¹
